Measurements: publication PMC9143221 (Pharmaceuticals, 2022)
Converted amounts (≈) assume the structure as drawn. Where two headings read alike, the source gives them in different places. Bridge positions count the residues as written; N and C are the ends. Square brackets hold non-standard residues; d marks the D form. Ends that are not written are not given here. Peptide text beside a SMILES is read from it.

Experiments:
[1] = system: pseudo-EBOV (VSV-eGP)
[2] = system: S. aureus USA300
[3] = system: Staphylococcus epidermidis 1457
[4] = system: Escherichia coli E416-7
[5] = system: Pseudomonas aeruginosa #2
[6] = system: Klebsiella pneumoniae E406-17
[7] = system: Acinetobacter baumannii B28-16
[8] = system: human red blood cells; conditions: red cells of human
[9] = system: pseudo-EBOV (VSV-eGP); type: cell-based, Ebola virus
[10] = system: SARS-CoV-2 WI; conditions: 2 h
[11] = system: Calu-3 (ATCC, HTB-55) cells; conditions: 48 h
[12] = system: all the tested antibiotic-resistant pathogens (e.g., MRSA, Escherichia coli, Pseudomonas aeruginosa, and Klebsiella pneumoniae)
[13] = system: Vero cells (ATCC, CCL-81)
[14] = system: BALB/c mouse red blood cells
[15] = system: HaCaT cells (human keratinocytes)

## RWLRGLLSGLLRRLLS-NH2 [DFTavP2]
[1]; 2 h, 5 µM
  decrease in the viral inhibition compared to DFTavP1: 33%
[2]
  Minimum inhibitory concentration, S. aureus USA300: 4 µM
[3]
  Minimum inhibitory concentration, Staphylococcus epidermidis 1457: 2 µM
[4]
  Minimum inhibitory concentration, Escherichia coli E416-7: 4 µM
[5]
  Minimum inhibitory concentration, Pseudomonas aeruginosa #2: 8 µM
[6]
  Minimum inhibitory concentration, Klebsiella pneumoniae E406-17: 4 µM
[7]
  Minimum inhibitory concentration, Acinetobacter baumannii B28-16: 2 µM
[8]
  hRBC HC50 (50% hemolytic concentration): below 12.5 µM

## CC[C@H](C)[C@H](NC(=O)[C@H](CCCCN)NC(=O)[C@H](CCC(=O)O)NC(=O)[C@H](CCCCN)NC(=O)[C@H](CO)NC(=O)[C@H](CCCCN)NC(=O)[C@H](CCCNC(=N)N)NC(=O)[C@H](Cc1ccccc1)NC(=O)[C@H](Cc1ccccc1)NC(=O)[C@H](CC(=O)O)NC(=O)CNC(=O)[C@H](CC(C)C)NC(=O)[C@@H](N)CC(C)C)C(=O)NCC(=O)N[C@@H](CCCCN)C(=O)N[C@@H](CCC(=O)O)C(=O)N[C@@H](Cc1ccccc1)C(=O)N[C@@H](CCCCN)C(=O)N[C@@H](CCCNC(=N)N)C(=O)N[C@H](C(=O)N[C@H](C(=O)N[C@@H](CCC(N)=O)C(=O)N[C@@H](CCCNC(=N)N)C(=O)N[C@H](C(=O)N[C@@H](CCCCN)C(=O)N[C@@H](CC(=O)O)C(=O)N[C@@H](Cc1ccccc1)C(=O)N[C@@H](CC(C)C)C(=O)N[C@@H](CCCNC(=N)N)C(=O)N[C@@H](CC(N)=O)C(=O)N[C@@H](CC(C)C)C(=O)N[C@H](C(=O)N1CCC[C@H]1C(=O)N[C@@H](CCCNC(=N)N)C(=O)N[C@H](C(=O)N[C@@H](CCC(=O)O)C(=O)N[C@@H](CO)C(=O)O)[C@@H](C)O)C(C)C)[C@@H](C)CC)C(C)C)[C@@H](C)CC [LL-37, reference compound]
[9]
  inhibition of VSV-eGP, treated immediately after infection: 9%
[1]
  inhibition of VSV-eGP (in words): higher viral inhibition than DDIP1
[10]; 5 µM
  inhibition of SARS-CoV-2: 18%
[10]; 10 µM
  inhibition of SARS-CoV-2: ~ 27%
[11]
  Calu3 Cell TC50: 19.1 µM

## RWLRGLLSGLLR-NH2 [DFTavP3]
[2]
  Minimum inhibitory concentration, S. aureus USA300: 4 µM
[3]
  Minimum inhibitory concentration, Staphylococcus epidermidis 1457: 8 µM
[4]
  Minimum inhibitory concentration, Escherichia coli E416-7: 2 to 4 µM
[5]
  Minimum inhibitory concentration, Pseudomonas aeruginosa #2: 4 to 8 µM
[6]
  Minimum inhibitory concentration, Klebsiella pneumoniae E406-17: 8 µM
[7]
  Minimum inhibitory concentration, Acinetobacter baumannii B28-16: 4 µM
[8]
  hRBC HC50 (50% hemolytic concentration): 50 µM

## CC(C)C[C@@H](NC(=O)CN)C(=O)N[C@H](CCCNC(=N)N)C(=O)N[C@@H]1CSSC[C@H](C(=O)N[C@H](CC(C)C)C(=O)N[C@H](CC(C)C)C(=O)N[C@H](CCCNC(=N)N)C(=O)O)NC(=O)[C@@H](CCCNC(=N)N)NC(=O)CNC(=O)[C@@H](CC(C)C)NC(=O)[C@@H](CCCNC(=N)N)NC(=O)[C@@H](CCCNC(=N)N)NC(=O)[C@@H](CC(C)C)NC(=O)[C@@H](CC(C)C)NC(=O)[C@@H](CCCNC(=N)N)NC(=O)CNC(=O)[C@@H](CC(C)C)NC(=O)[C@@H](CCCNC(=N)N)NC1=O [DDIP1] (H-G[dL][dR][dC][dR][dL]G[dR][dL][dL][dR][dR][dL]G[dR][dC][dL][dL][dR]-OH; disulfide 4-16; N-terminus assumed)
[9]
  inhibition of VSV-eGP, treated immediately after infection: ~ 15%
[1]; 2 h, 2.5 µM
  inhibition against the virus (VSV-eGP): 7%
[1]; 2 h, 5 µM
  inhibition against the virus (VSV-eGP): 14%
[10]; 5 µM
  inhibition of SARS-CoV-2: 42%
[10]; 10 µM
  inhibition of SARS-CoV-2: ~ 55%
[2]
  Minimum inhibitory concentration, S. aureus USA300: 4 µM (≈ 9.12 µg/mL)
[3]
  Minimum inhibitory concentration, Staphylococcus epidermidis 1457: 4 to 8 µM
[4]
  Minimum inhibitory concentration, Escherichia coli E416-7: 2 µM (≈ 4.56 µg/mL)
[5]
  Minimum inhibitory concentration, Pseudomonas aeruginosa #2: 4 µM (≈ 9.12 µg/mL)
[6]
  Minimum inhibitory concentration, Klebsiella pneumoniae E406-17: 4 µM (≈ 9.12 µg/mL)
[7]
  Minimum inhibitory concentration, Acinetobacter baumannii B28-16: 2 to 4 µM
[12]
  MIC values against all the tested antibiotic-resistant pathogens: 2 to 8 µM
[13]
  Vero Cell TC50: 13.0 µM

## RWVRGVVSGVVRRVVS-NH2 [DFTavP4]
[2]
  Minimum inhibitory concentration, S. aureus USA300: >64 µM
[4]
  Minimum inhibitory concentration, Escherichia coli E416-7: 16 µM

## RWLRGLLSGLLRRLLSGLLL-NH2 [DFTavP1]
[1]; 2 h, 2.5 µM
  higher inhibition than LL-37: 18%
[2]
  Minimum inhibitory concentration, S. aureus USA300: 8 to 16 µM
[3]
  Minimum inhibitory concentration, Staphylococcus epidermidis 1457: 8 to 16 µM
[4]
  Minimum inhibitory concentration, Escherichia coli E416-7: 16 µM
[5]
  Minimum inhibitory concentration, Pseudomonas aeruginosa #2: 32 µM
[6]
  Minimum inhibitory concentration, Klebsiella pneumoniae E406-17: 16 to 32 µM
[7]
  Minimum inhibitory concentration, Acinetobacter baumannii B28-16: 8 µM
[14]
  hemolysis of murine red blood cells (in words): highly hemolytic
[14]; red cells of mouse
  mRBC HC50: <10 µM
[15]
  HaCaT TC50 (peptide concentration that killed 50% of human keratinocytes): 25 µM
